Measured values taken from patent publication US11591323B2, “Muscarinic agonists as non-steroidal and non-opioid analgesics and methods of use thereof” (Barry University, priority 2019, dated 2023).
“Also recorded” adds a separate entry of the source. Read-outs that look alike come from different tables or passages of the source.

Experiments:
striatum (M4 rich) = experiment: forskolin-stimulated cAMP in dissipated rat striatum; assay type: cell-based; conditions: in words
Experimental: Effects of compounds 6A and 7A were then measured ex vivo in dissipated rat tissues (FIG. 5). Accumulation of IPX was measured in dissipated brain cortex (rich in M1 & M3), submaxillary gland (M1 & M3), and ventral tegmental area (M5). Native tissues express about 10-times less muscarinic receptors than CHO cell lines. Accumulation of cAMP was measured in cerebellum (M2) and striatum (M4).
Rat dissipated tissues: Suspension of dissipated tissues from rat brain cortex, cerebellum, striatum, ventral tegmental area (VTA) and submaxillary glands was prepared as described previously in supplementary methods. Adult 8-weeks old male Wistar rats were scarified by cervical dislocation in accordance with current legislative and guidelines under permission of Czech Ministry of Agriculture 16OZ23113/2017-17214. Tissues were dissected immediately. Submaxillary glands were minced by scissors. Tissues were dispersed by incubation for 15 min at 37° C. in KHB supplemented with trypsin and trituration every 5 min. Large undissipated parts were removed by cell mesh. Then dissipated tissues were centrifuged 3 min at 250×g, re-suspended in KHB and centrifuged again to remove trypsin. Suspension of dissipated tissues was used immediately in experiments. Two submaxillary glands or about 400 mg of brain tissue was used a 96-sample assay.
(§1) Measurements of the production of cAMP and inositol phosphates: Levels of second messengers cAMP and inositol phosphates were determined in radiochemical chromatography assays as described previously. To determine level of cAMP, cells in suspension were pre-incubated for 1 h with 0.4 μM [^3H]adenine, washed, and incubated for 10 min in the presence of isobutylmethylxanthine and 10 μM forskolin. […] Incubation was ended by addition of 0.2 ml of 2.5 M HCl to the samples. Samples were applied to alumina columns (1.5 g of alumina per column), washed with 2 ml ammonium acetate (pH=7.0) and eluted from columns with 4 ml ammonium acetate and measured by liquid scintillation spectrometry. […] For this purpose, new CHO cell lines stably expressing promiscuous G15 G-protein and M2 or M4 receptor were generated by transfection with pCMV/hygro vector and hygromycin selection. To determine the rate of formation of inositol phosphates IPX, suspended cells were pre-incubated with 0.1 μM [^3H]myo-inositol for 60 min, washed, and incubated with 10 mM LiCl for 15 min. […] The incubation was stopped by addition of 0.5 ml of chloroform methanol HCl mixture (2:1:0.1). After separation of water and organic phases, 0.6 ml of water phase was applied to Dowex columns (1.5 g of Dowex per column), washed by 20 ml of 60 mM ammonium formate/5 mM sodium borate buffer and eluted from columns with 4 ml of 1M ammonium formate/0.1 formic acid buffer and measured by liquid scintillation spectrometry.
To exclude the possibility that the observed effects of compounds 6A and 7A are the result of overexpression in the heterologous system, functional response to the compounds was measured ex vivo in dissipated native rat tissues. […] Accumulation of IPX was measured in brain cortex, submaxillary gland, and ventral tegmental area (VTA) as brain cortex and submaxillary glands are rich in M1 and in M3 receptors, respectively, and VTA is the only region expressing significant amount of M5 receptors. Accumulation of cAMP was measured in M2-rich cerebellum and M4-rich striatum.

M5 muscarinic receptor = molecular target: T1, M5 muscarinic receptor (Homo sapiens, UniProt P08912); experiment: inhibition of forskolin-stimulated cAMP, M5 CHO cells (M5Gi); assay type: cell-based; parameters: host or cells: CHO cells, stably transfected; conditions: for Emax: CHO; for effect on forskolin-stimulated production of cAMP: M5, non-preferential response, in words; for RAi: Table 8, relative to carbachol; for Δlog(τ/KA): Table 8, to carbachol; for Gi over Gq+G15 bias: at M5 receptors
T1 sequence (P08912 1-532): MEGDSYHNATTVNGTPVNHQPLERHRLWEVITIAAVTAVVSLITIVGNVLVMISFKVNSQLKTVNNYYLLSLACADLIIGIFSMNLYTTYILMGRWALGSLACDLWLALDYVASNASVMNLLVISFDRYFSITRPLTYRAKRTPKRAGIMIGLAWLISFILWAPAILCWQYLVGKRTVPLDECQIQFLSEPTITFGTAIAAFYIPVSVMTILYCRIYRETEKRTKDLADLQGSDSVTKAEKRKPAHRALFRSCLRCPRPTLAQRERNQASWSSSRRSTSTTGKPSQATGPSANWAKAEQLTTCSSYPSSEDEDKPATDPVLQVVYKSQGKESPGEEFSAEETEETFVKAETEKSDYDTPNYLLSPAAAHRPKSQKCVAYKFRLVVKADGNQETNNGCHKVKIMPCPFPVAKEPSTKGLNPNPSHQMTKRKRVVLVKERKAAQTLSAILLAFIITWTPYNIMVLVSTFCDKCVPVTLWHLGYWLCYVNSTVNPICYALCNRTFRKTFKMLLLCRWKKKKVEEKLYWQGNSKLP
Experimental: Since activation of phospholipase C (PLC) via M2 and M4 receptors is weak, cells were transferred with G15 G-protein to facilitate coupling.
To determine level of cAMP, cells in suspension were pre-incubated for 1 h with 0.4 μM [^3H]adenine, washed, and incubated for 10 min in the presence of isobutylmethylxanthine and 10 μM forskolin. […] Incubation was ended by addition of 0.2 ml of 2.5 M HCl to the samples. Samples were applied to alumina columns (1.5 g of alumina per column), washed with 2 ml ammonium acetate (pH=7.0) and eluted from columns with 4 ml ammonium acetate and measured by liquid scintillation spectrometry. […] The incubation was stopped by addition of 0.5 ml of chloroform methanol HCl mixture (2:1:0.1). After separation of water and organic phases, 0.6 ml of water phase was applied to Dowex columns (1.5 g of Dowex per column), washed by 20 ml of 60 mM ammonium formate/5 mM sodium borate buffer and eluted from columns with 4 ml of 1M ammonium formate/0.1 formic acid buffer and measured by liquid scintillation spectrometry.
as §1
For bi-phasic response, curves were inhibitory and stimulatory phase were fitted separately. Operational Model of Functional Agonism
[formula] where y is functional response at concentration of tested compound x, EMAX is maximal response of the system, KA is equilibrium dissociation constant and nH is slope factor. Eq. 5 was fitted to data from functional experiments. Eq. 5 was fitted to data by the two-step procedure described earlier. […] In the second step, Eq. 5 with EMAX fixed to the value determined in the first step was fitted to individual experimental data sets. Relative Intrinsic Activity
Muscarinic receptors are also able to stimulate non-preferential signalling pathways.

[1] = M5Gi (↓cAMP), Table 8, read-out: E′MAX
[2] = M5Gi (↓cAMP), Table 8, read-out: pEC50 (converted)
[3] = M5Gi (↓cAMP), Table 8, read-out: pKA (converted)

| SMILES | Emax of inhibition of cAMP synthesis (striatum (M4 rich)) | forskolin-stimulated cAMP level (striatum (M4 rich)) | Emax (M5 muscarinic receptor; [1]) [%] | effect on forskolin-stimulated production of cAMP (M5 muscarinic receptor) | τ (M5 muscarinic receptor; M5Gi (↓cAMP), Table 8) | RAi (M5 muscarinic receptor; M5Gi (↓cAMP)) | Δlog(τ/KA) (M5 muscarinic receptor; M5Gi (↓cAMP)) | EC50 (M5 muscarinic receptor; [2]) [µM] | Kd (M5 muscarinic receptor; [3]) [µM] | Gi over Gq+G15 bias (M5 muscarinic receptor) | EC50 (M5 muscarinic receptor) [µM] | Kd (M5 muscarinic receptor) [µM] | Emax (M5 muscarinic receptor) [%] | E′MAX (M5 muscarinic receptor; M5Gi (↓cAMP), Table 8) |
| --- | --- | --- | --- | --- | --- | --- | --- | --- | --- | --- | --- | --- | --- | --- |
| C[N+]1(Cc2cccs2)CC=CCC1.[I-] (stereo not shown) [Compound 7A, 1-methyl-1-[(thiophen-2-yl)methyl]-1,2,3,6-tetrahydropyridin-1-ium iodide] | comparable to inhibition by carbachol | only a decrease in cAMP level | 34 ± 2 | inhibited cAMP production | 0.59 ± 0.02 | 0.026 ± 0.003 | 1.67 ± 0.18 | 31.6 | 50.1 | ~30 fold | – | – | – | – |
| O=C1CCCN1CC#CCN1CCCC1 [oxotremorine, reference compound] | – | – | – | – | 0.31 ± 0.03 | 6.44 ± 0.67 | −0.79 ± 0.06 | – | – | – | 0.0708 | 0.1 | 22 ± 2 | – |
| C[N+](C)(C)CCOC(N)=O [carbachol, reference compound] | – | transient decrease in forskolin-stimulated cAMP level at nanomolar concentrations followed by an increase at micromolar concentrations; also recorded: transient decrease in forskolin-stimulated cAMP level at sub-micromolar concentrations followed by an increase at micromolar concentrations | – | inhibited forskolin-stimulated production of cAMP at nanomolar concentrations | 0.24 ± 0.03 | – | 0 | – | – | – | – | – | – | 18 ± 1 % of inhibition |
| C1=CCN(Cc2cccs2)CC1.Cl [Compound 6A, 1-[(thiophen-2-yl)methyl]-1,2,3,6-tetrahydropyridin-1-ium chloride] | comparable to inhibition by carbachol | only a decrease in cAMP level | 22 ± 2 | inhibited cAMP production | 0.31 ± 0.04 | 0.021 ± 0.002 | 1.70 ± 0.21 | 21.9 | 31.6 | about 10 fold | – | – | – | – |
